IC50 data for 22 molecules are collected here from patent publication US12187742B2 (XRAD Therapeutics, Inc., priority 2018, dated 2025).

pIC50: −log10 of the molar value. Counter-ions that a name gives are not always drawn. Some results are limits rather than exact numbers.

One assay concerns the target DNA-PK (Homo sapiens (Human), UniProt P78527). As to the kind of experiment: DNA-PK Enzyme-Linked Immunosorbent Assay (phosphorylation of GST-p53 (1-101) peptide). In kind it is biochemical. The following applies: ELISA. In a few lines: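 Inhibition measured by 450 nm absorbance after HRP/TMB detection of phospho-Ser15 on immobilized GST-p53 (1-101). The kinase reaction used 0.1 μg/mL DNA-PK and 20 μM ATP, 1 h at 25 °C. Ten 3-fold compound dilutions, top final concentration 100 nM.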

The target in another assay is ATM (Homo sapiens (Human), UniProt Q13315). Put plainly: ATM in Cell Western Assay (pKAP1 in etoposide-treated MCF-7 cells). The assay is classed as cell-based. In a few lines:
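After paraformaldehyde fixation and Triton X-100 permeabilization, immunostained plates were read by infrared scanning (ODYSSEY CLx). Compound was given as 10 doses, 3-fold dilutions from a 1 μM final top concentration.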

The mark [1] stands for this setting: MCF-7 cells, etoposide 100 μM, 1 hr, pKAP1 readout.
Where [2] appears, read: pKAP1 in etoposide-treated MCF-7 cells.

ATM, sequence (Q13315 whole entry): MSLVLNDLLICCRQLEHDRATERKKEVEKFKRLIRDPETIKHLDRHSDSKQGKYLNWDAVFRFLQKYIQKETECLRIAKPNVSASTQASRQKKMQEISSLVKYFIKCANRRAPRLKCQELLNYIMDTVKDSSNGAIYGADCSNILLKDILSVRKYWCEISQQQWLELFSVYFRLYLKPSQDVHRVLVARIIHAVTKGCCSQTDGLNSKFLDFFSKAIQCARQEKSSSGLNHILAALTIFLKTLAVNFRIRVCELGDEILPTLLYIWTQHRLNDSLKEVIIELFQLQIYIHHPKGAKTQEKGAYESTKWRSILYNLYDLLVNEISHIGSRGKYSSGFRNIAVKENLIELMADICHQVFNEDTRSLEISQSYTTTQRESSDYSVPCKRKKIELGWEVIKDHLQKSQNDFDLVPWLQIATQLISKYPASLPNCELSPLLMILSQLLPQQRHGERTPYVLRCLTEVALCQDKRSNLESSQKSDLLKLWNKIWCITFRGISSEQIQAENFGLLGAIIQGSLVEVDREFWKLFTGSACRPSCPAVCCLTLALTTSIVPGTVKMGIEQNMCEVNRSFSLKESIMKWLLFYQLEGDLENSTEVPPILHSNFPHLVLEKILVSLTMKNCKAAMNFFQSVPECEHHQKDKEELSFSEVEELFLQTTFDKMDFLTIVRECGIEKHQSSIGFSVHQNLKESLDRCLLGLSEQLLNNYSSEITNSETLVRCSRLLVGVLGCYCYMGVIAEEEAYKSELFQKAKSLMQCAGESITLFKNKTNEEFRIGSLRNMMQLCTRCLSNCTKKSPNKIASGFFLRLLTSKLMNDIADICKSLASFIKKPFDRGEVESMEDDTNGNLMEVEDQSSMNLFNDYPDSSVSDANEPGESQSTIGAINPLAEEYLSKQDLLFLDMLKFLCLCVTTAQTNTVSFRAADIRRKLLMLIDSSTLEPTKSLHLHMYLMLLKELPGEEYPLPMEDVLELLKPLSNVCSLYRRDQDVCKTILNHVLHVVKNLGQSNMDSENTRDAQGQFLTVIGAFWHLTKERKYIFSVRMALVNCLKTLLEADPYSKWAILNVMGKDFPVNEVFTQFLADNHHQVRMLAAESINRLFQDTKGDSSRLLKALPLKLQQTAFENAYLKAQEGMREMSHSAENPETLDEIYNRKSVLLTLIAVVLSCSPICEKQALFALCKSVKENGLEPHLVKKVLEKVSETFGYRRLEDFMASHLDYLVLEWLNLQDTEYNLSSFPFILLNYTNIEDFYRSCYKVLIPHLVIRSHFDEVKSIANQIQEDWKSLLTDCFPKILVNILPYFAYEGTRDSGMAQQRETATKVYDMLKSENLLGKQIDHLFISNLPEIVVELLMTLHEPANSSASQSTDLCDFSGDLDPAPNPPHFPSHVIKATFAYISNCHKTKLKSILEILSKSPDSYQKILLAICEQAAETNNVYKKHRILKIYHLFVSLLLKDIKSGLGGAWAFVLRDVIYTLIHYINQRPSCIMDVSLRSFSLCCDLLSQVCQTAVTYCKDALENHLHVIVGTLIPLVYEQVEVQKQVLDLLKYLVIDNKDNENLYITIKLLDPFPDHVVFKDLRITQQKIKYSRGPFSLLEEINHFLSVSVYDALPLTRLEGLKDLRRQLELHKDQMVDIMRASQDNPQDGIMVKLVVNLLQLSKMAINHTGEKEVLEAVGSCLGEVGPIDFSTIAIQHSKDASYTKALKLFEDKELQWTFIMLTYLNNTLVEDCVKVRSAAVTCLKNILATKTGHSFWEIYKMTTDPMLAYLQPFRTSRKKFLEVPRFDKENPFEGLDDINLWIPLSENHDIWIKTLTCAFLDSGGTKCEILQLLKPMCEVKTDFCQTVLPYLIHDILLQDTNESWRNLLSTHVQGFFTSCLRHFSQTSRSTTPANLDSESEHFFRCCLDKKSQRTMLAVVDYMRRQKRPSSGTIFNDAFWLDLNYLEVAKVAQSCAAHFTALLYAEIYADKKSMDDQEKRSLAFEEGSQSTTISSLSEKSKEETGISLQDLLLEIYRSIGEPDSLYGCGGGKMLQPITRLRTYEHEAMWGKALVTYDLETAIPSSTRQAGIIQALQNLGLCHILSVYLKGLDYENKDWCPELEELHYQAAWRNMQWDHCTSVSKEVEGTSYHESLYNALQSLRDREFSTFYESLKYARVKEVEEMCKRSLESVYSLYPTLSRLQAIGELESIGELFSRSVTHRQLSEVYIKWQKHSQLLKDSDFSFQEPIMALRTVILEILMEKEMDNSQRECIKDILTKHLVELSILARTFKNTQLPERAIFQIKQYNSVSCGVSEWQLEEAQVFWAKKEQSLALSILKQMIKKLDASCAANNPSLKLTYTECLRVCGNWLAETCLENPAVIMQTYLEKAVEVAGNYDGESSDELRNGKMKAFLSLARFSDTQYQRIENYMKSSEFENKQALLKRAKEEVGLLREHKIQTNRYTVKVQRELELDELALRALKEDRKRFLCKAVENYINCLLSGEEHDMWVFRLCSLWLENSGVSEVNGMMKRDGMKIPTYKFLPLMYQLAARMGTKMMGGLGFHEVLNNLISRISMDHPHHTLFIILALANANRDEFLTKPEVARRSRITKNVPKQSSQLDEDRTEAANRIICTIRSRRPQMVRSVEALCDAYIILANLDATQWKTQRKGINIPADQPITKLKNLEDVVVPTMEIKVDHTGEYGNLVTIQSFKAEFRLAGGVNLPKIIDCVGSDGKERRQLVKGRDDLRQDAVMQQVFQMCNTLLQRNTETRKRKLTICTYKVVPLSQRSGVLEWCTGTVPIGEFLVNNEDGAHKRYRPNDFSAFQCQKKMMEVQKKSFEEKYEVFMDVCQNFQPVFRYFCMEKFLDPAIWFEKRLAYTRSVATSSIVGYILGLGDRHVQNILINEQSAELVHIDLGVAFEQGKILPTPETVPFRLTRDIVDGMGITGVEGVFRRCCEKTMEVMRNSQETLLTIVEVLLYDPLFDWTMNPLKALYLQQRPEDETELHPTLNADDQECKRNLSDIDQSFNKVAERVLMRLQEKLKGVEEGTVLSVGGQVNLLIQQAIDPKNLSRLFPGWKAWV

As to `COc1ccc(S(=O)(=O)Nc2cc(-c3ccc4ncc5c(c4c3)C3(CC3)C(=O)N5C)cnc2OCCCN2CCCCC2)cc1` [Example 119, 4-Methoxy-N-(5-(3′-methyl-2′-oxo-2′,3′-dihydrospiro[cyclopropane-1,1′-pyrrolo[2,3-c]quinolin]-8′-yl)-2-(3-(piperidin-1-yl)propoxy)pyridin-3-yl(benzenesulfonamide hydrochloride], the pIC50 against DNA-PK (ATP 20 μM) is above 9.30; against ATM (setting [1]) it was 7.00 to 9.00.
As for `CC(C)NCCOc1ncc(-c2cc3c(cc2F)ncc2c3[C@]3(C[C@H](c4cccc(Cl)c4)C3)C(=O)N2C)cc1NS(C)(=O)=O` [Example 418, cis-N-(5-(3-(3-Chlorophenyl)-7′-fluoro-3′-methyl-2′-oxo-2′,3′-dihydrospiro[cyclobutane-1,1′-pyrrolo[2,3-c]quinolin]-8′-yl)-2-(2-(isopropylamino)ethoxy)pyridin-3-yl)methanesulfonamide], the pIC50 on DNA-PK (20 μM ATP) and at ATM (setting [2]) was 7.00 to 9.00 each time.
With `CC(C)NCCOc1ncc(-c2cc3c4c(cnc3cc2F)N(C)C(=O)C42CN(c3ccc4c(c3)OCCO4)C2)cc1NS(C)(=O)=O` [Example 545, N-(5-(1-(2,3-Dihydrobenzo[b][1,4]dioxin-6-yl)-7′-fluoro-3′-methyl-2′-oxo-2′,3′-dihydrospiro[azetidine-3,1′-pyrrolo[2,3-c]quinolin]-8′-yl)-2-(2-(isopropylamino)ethoxy)pyridin-3-yl)methanesulfonamide], the pIC50 is 9.00 to 9.30 at DNA-PK (20 μM ATP) and 7.00 to 9.00 against ATM (setting [2]).
For `CC(C)NCCOc1ncc(-c2cc3c4c(cnc3cc2F)N(C)C(=O)C42CCC2)cc1NS(=O)(=O)N1CC(F)C1` [Example 371, 3-Fluoro-N-(5-(7′-fluoro-3′-methyl-2′-oxo-2′,3′-dihydrospiro[cyclobutane-1,1′-pyrrolo[2,3-c]quinolin]-8′-yl)-2-(2-(isopropylamino)ethoxy)pyridin-3-yl)azetidine-1-sulfonamide] the same measures were 7.00 to 9.00 and 7.00 to 9.00.
For the molecule `CN(C)CCCCOc1ncc(-c2ccc3ncc4c(c3c2)C2(CC2)C(=O)N4C)cc1NS(=O)(=O)c1ccccc1` [Example 35, N-(2-(4-(Dimethylamino)butoxy)-5-(3′-methyl-2′-oxo-2′,3′-dihydrospiro [cyclopropane-1,1′-pyrrolo[2,3-c]quinolin]-8′-yl)pyridin-3-yl)benzenesulfonamide], the pIC50 against DNA-PK (ATP 20 μM) was 9.00 to 9.30; on ATM (setting [1]), 7.00 to 9.00.
For `CN1C(=O)C2(CCC2)c2c1cnc1ccc(-c3cnc(N4CCC(N5CCCCC5)CC4)c(NS(=O)(=O)c4ccccc4)c3)cc21` [Example 155, N-(2-([1,4′-Bipiperidin]-1′-yl)-5-(3′-methyl-2′-oxo-2′,3′-dihydrospiro[cyclobulane-1,1′-pyrrolo[2,3-c]quinolin]-8′-yl)pyridin-3-yl)benzenesulfonamide hydrochloride] the same measures were 9.00 to 9.30 and 7.00 to 9.00.
For `CN(C)CCCOc1ncc(-c2cc3c4c(cnc3cc2F)N(C)C(=O)C42CC2)cc1NS(=O)(=O)C1CC1` [Example 66, N-(2-(3-(Dimethylamino)propoxy)-5-(7′-fluoro-3′-methyl-2′-oxo-2′,3′-dihydrospiro[cyclopropane-1,1′-pyrrolo[2,3-c]quinolin]-8′-yl)pyridin-3-yl) cyclopropanesulfonamide] the same measures were 7.00 to 9.00 and 7.00 to 9.00.
The like results for `CN1CCN(c2ncc(-c3ccc4ncc5c(c4c3)C3(CCC3)C(=O)N5C)cc2NS(C)(=O)=O)CC1` [Example 229, N-(5-(3′-Methyl-2′-oxo-2′,3′-dihydrospiro[cyclobutane-1,1′-pyrrolo[2,3-c]quinolin]-8′-yl)-2-(4-methylpiperazin-1-yl)pyridin-3-yl)methanesulfonamide] were, in that order, above 9.30 and 9.00 to 9.30.
Consider `CC(C)NCCOc1ncc(-c2cc3c4c(cnc3cc2F)N(C)C(=O)C42CN(c3ccccc3Cl)C2)cc1NS(C)(=O)=O` [Example 525, N-(5-(1-(2-Chlorophenyl)-7′ fluoro-3′-methyl-2′-oxo-2′,3′-dihydrospiro[azetidine-3,1′-pyrrolo[2,3-c]quinolin]-8′-yl)-2-(2-(isopropylamino)ethoxy)pyridin-3-yl)methanesulfonamide], for which the pIC50 at DNA-PK (20 μM ATP) was 9.00 to 9.30; against ATM (setting [2]) it was 7.00 to 9.00.
Turning to `CN1C(=O)C2(CCC2)c2c1cnc1ccc(-c3cnc(N4CCC(N(C)C)CC4)c(NS(=O)(=O)C4CC4)c3)cc21` [Example 173, N-(2-(4-(Dimethylamino)piperidin-1-yl)-5-(3′-methyl-2′-oxo-2′,3′-dihydrospiro[cyclobutane-1,1′-pyrrolo[2,3-c]quinolin]-8′-yl)pyridin-3-yl)cyclopropanesulfonamide], the pIC50 on DNA-PK (ATP 20 μM) and at ATM (setting [1]) was above 9.30 throughout.
For `CN1C(=O)C2(CC2)c2c1cnc1ccc(-c3cnc(OCCC4CCCN4C)c(NS(=O)(=O)c4ccccc4)c3)cc21` (centres unmarked) [Example 78, N-(5-(3′-Methyl-2′-oxo-2′,3′-dihydrospiro[cyclopropane-1,1′-pyrrolo[2,3-c]quinolin]-8′-yl)-2-(2-(1-methylpyrrolidin-2-yl)ethoxy)pyridin-3-yl)benzenesulfonamide], the pIC50 against DNA-PK (ATP 20 μM) and against ATM (setting [1]) was 7.00 to 9.00 each time.
As for `CN(C)CCCOc1ncc(-c2ccc3ncc4c(c3c2)C2(CCC2)C(=O)N4C)cc1NS(=O)(=O)N1CCN(C)CC1` [Example 162, N-(2-(3-(Dimethylamino)propoxy)-5-(3′-methyl-2′-oxo-2′,3′-dihydrospiro[cyclobutane-1,1′-pyrrolo[2,3-c]quinolin]-8′-yl)pyridin-3-yl)-4-methylpiperazine-1-sulfonamide hydrochloride], the pIC50 at DNA-PK (ATP 20 μM) was 9.00 to 9.30; against ATM (setting [1]) it was 7.00 to 9.00.
For the molecule `CN1C(=O)C2(CCC2)c2c1cnc1ccc(-c3cnc(N4CCC(N5CCCCC5)CC4)c(NS(C)(=O)=O)c3)cc21` [Example 228, N-(2-([1,4′-Bipiperidin]-1′-yl)-5-(3′-methyl-2′-oxo-2′,3′-dihydrospiro[cyclobutane-1,1′-pyrrolo[2,3-c]quinolin]-8′-yl)pyridin-3-yl)methanesulfonamide], the figures for the pIC50 against DNA-PK (ATP 20 μM) and at ATM (setting [1]) were above 9.30 and 9.00 to 9.30, respectively.
As to `CN1C(=O)C2(CCC2)c2c1cnc1ccc(-c3cnc(OCCCN4CCCCC4)c(NS(=O)(=O)N(C)C)c3)cc21` [Example 180, hydrochloride], the pIC50 is 9.00 to 9.30 against DNA-PK (ATP 20 μM) and 7.00 to 9.00 on ATM (setting [1]).
`CN1CCN(c2ncc(-c3ccc4ncc5c(c4c3)C3(CCC3)C(=O)N5C)cc2NS(=O)(=O)C2CC2)CC1` [Example 227, N-(5-(3′-Methyl-2′-oxo-2′,3′-dihydrospiro[cyclobutane-1,1′-pyrrolo[2,3-c]quinolin]-8′-yl)-2-(4-methylpiperazin-1-yl)pyridin-3-yl)cyclopropanesulfonamide hydrochloride]: the figures for the pIC50 against DNA-PK (ATP 20 μM) and against ATM (setting [1]) were above 9.30 and 9.00 to 9.30, respectively.
For the molecule `CN(C)CCCOc1ncc(-c2ccc3ncc4c(c3c2)C2(CC(F)(F)C2)C(=O)N4C)cc1NS(C)(=O)=O` [Example 554, N-(5-(3,3-Difluoro-3′-methyl-2′-oxo-2′,3′-dihydrospiro[cyclobutane-1,1′-pyrrolo[2,3-c]quinolin]-8′-yl)-2-(3-(dimethylamino)propoxy)pyridin-3-yl)methanesulfonamide], the pIC50 against DNA-PK (20 μM ATP) and on ATM (setting [2]) was 7.00 to 9.00 in each case.
On to `CN(C)CCCOc1ncc(-c2ccc3ncc4c(c3c2)C2(CCOCC2)C(=O)N4C)cc1NS(=O)(=O)c1ccccc1` [Example 33, N-(2-(3-(Dimethylamino)propoxy)-5-(3′-methyl-2′-oxo-2,2′,3′-,3′-,5,6-hexahydrospiro[pyran-4,1′-pyrrolo[2,3-c]quinolin]-8′-yl)pyridin-3-yl)benzenesulfonamide], for which the negative logarithm of the IC50 (pIC50) against DNA-PK (ATP 20 μM) and on ATM (setting [1]) was 7.00 to 9.00 throughout.
Consider `COc1ncc(-c2ccc3ncc4c(c3c2)C2(CC2)C(=O)N4C)cc1NS(=O)(=O)c1cccc(Cl)c1` [Example 9, 3-Chloro-N-(2-methoxy-5-(3′-methyl-2′-oxo-2′,3′-dihydrospiro [cyclopropane-1,1′-pyrrolo[2,3-c]quinolin]-8′-yl)pyridin-3-yl)benzenesulfonamide], for which the pIC50 at DNA-PK (ATP 20 μM) is above 9.30; against ATM (setting [1]) it was 7.00 to 9.00.
As to `Cc1ccc(N2CC3(C2)C(=O)N(C)c2cnc4cc(F)c(-c5cnc(OCCNC(C)C)c(NS(C)(=O)=O)c5)cc4c23)cc1` [Example 526, N-(5-(7′-Fluoro-3′-methyl-2′-oxo-1-(p-tolyl)-2′,3′-dihydrospiro[azetidine-3,1′-pyrrolo[2,3-c]quinolin]-8′-yl)-2-(2-(isopropylamino)ethoxy)pyridin-3-yl)methanesulfonamide hydrochloride], the figures for the pIC50 on DNA-PK (20 μM ATP) and at ATM (setting [2]) were above 9.30 and 7.00 to 9.00, respectively.
`CCS(=O)(=O)Nc1cc(-c2cc3c4c(cnc3cc2F)N(C)C(=O)C42CN(C(C)C)C2)cnc1OCCNC(C)C` [Example 483]: the pIC50 on DNA-PK (20 μM ATP) was 9.00 to 9.30; at ATM (setting [2]), 7.00 to 9.00.
For the molecule `CC1CCCN1S(=O)(=O)Nc1cc(-c2ccc3ncc4c(c3c2)C2(CCC2)C(=O)N4C)cnc1OCCCN(C)C` (centres unmarked) [Example 172, N-(2-(3-(Dimethylamino)propoxy)-5-(3′-methyl-2′-oxo-2′,3′-dihydrospiro [cyclobulane-1,1′-pyrrolo[2,3-c]quinolin]-8′-yl)pyridin-3-yl)-2-methylpyrrolidine-1-sulfonamide], the pIC50 at DNA-PK (ATP 20 μM) and on ATM (setting [1]) was 7.00 to 9.00 in each case.
Consider `CNC1CN(c2ncc(-c3cc4c5c(cnc4cc3F)N(C)C(=O)C53CCC3)cc2NS(C)(=O)=O)C1` [Example 330, N-(5-(7′-Fluor-3′-methyl-2′-oxo-2′,3′-dihydrospiro [cyclobutane-1,1-pyrrolo[2,3-c]quinolin]-8′-yl)-2-(3-(methylamino)azetidin-1-yl)pyridin-3-yl) methanesulfonamide formate], for which the figures for the pIC50 against DNA-PK (ATP 20 μM) and against ATM (setting [1]) were 9.00 to 9.30 and 7.00 to 9.00, respectively.

The term pIC50 denotes the IC50 on a negative log10 scale, so that one unit is a factor of ten. A low value points to a large IC50.
